Data published in publication PMC10290391, “Targeted degradation of ⍺-synuclein aggregates in Parkinson’s disease using the AUTOTAC technology” (Molecular Neurodegeneration, 2023).

Test system: α-syn PFF-injected mouse model
Format: in vivo
Conditions: 10 mg/kg oral
Method: Mice were anesthetized and perfused with PBS and 4% paraformaldehyde. Brains were sectioned at 30 μm thickness by vibratome (Leica). Free-floating sections were blocked with PBS containing 5% serum and 0.3% Triton X-100 for 1 h. The sections were then incubated with an anti-tyrosine hydroxylase (TH) antibody (1:5,000, Sigma, T1299) overnight at 4℃. The sections were incubated with biotinylated secondary antibody for 1 h at room temperature. The signal amplification was achieved by the ABC kit (Vector) followed by development with DAB (Vector). TH^+ optical density was measured in three brain sections per animal. Images of the ipsilateral and contralateral striatal area were obtained using an Axio scan Z1 slide scanner (Zeiss). Images were converted to grayscale via Image J, and the intensity was analyzed. Normalized values across the sections were used to compare the relative TH^+ optical density.
Intrastriatal injection of α-syn fibrils was performed in C57BL6/J male mice at 8 weeks of age. 5 µg of α-syn fibrils were sonicated and injected into the dorsal striata in mice at the empirically derived coordinates: 1.0 mm anterior and 1.5 mm lateral to the Bregma, and 3.0 mm ventral relative to the skull in the course of 20 min. Scalp incisions were closed by suture. […]
Brain sections were cut into 30 µm on a freezing microtome, and stored in tissue storage solution at -20 °C. Sections were washed with PBS and incubated with blocking buffer (2% normal goat serum, 1% BSA, 1% Triton X-100, and Tween-20 in PBS) for 1 h at room temperature. After washing with PBS, sections were incubated with primary antibodies (pS129-α-syn, GFAP) overnight at 4 °C, followed by secondary Goat anti-mouse AlexaFluor488 and Goat anti-rabbit AlexaFluor555 for 1 h at room temperature. Images were processed by Axio Scan Z1 (Carl Zeiss). In order to quantify the number of neurons in the PFF-injected striatum, the brain sections were stained with 0.1% crystal violet solution containing 0.1% acetic acid for 1 min at 50 ℃ and then rinsed in distilled water. Sections were dehydrated in 95% and 100% alcohol and mounted on slides.
The behavioral tests were performed according to IACUC approval (AUTOTAC Bio Inc., ATB-2107–06-1). The previously generated PFF-injected mouse model was used. For the forelimb grip strength test, a grip strength meter (Bioseb, BIO-GS3) was used. Three consecutive measurements were done for each mouse, and the average was calculated. For the motor coordination test, a rotarod (Bioseb, BX-ROD) was used. Each trial consisted of three attempts.

Q: What does the source list for `Fc1ccc(COc2cccc(CNCCOCCOCCNc3cccc(-c4cc(-c5ccc6c(c5)OCO6)n[nH]4)c3)c2)cc1` [ATC161, 3-(3-(benzo[d][1,3]dioxol-5-yl)-1H-pyrazol-5-yl)-N-(2-(2-(2-((3-((4-fluorobenzyl)oxy)benzyl)amino)ethoxy)ethoxy)ethyl)aniline]?
A: neuronal cell death (Nissl staining, injection site): did not induce neuronal cell death; increase in time on rotarod (5 times per week, 16 weeks): 59%; number of GFAP+ signals in striata near endopiriform nucleus (9 weeks (45 treatments)): reduced the number of GFAP^+ signals; TH+ fiber level in ipsilateral striatum (16 weeks): reversed the TH^+ level to the extent of control group; number of p-α-syn+ aggregates in the contralateral striata (16 weeks): attenuated the number of p-α-syn^+ aggregates; peak grip force of fore- and hindlimbs (16 weeks): increased the peak grip force of fore- and hindlimbs to the extent of control group; number of p-α-syn+ aggregates in the injection sites (16 weeks, vs vehicle): reduced the number of p-α-syn^+ aggregates
